Assay results reported in patent publication US20260364080A1, “PYRAZOLO-PYRIMIDINONE COMPOUNDS FOR USE IN METHODS OF INHIBITING WEE1 A KINASE” (Acrivon Therapeutics, Inc., priority 2023, published 2026).
Read-outs that look alike come from different tables or passages of the source.

Experiments:
[1] = biological target: T1, recombinant human Wee1A kinase (Homo sapiens, UniProt P30291); assay: Wee1A kinase binding assay (LanthaScreen Eu time-resolved FRET)
T1 construct: full length Wee1 kinase was expressed by baculovirus in insect cells; purchased Invitrogen PV3817; host or cells: insect cells (baculovirus)
Experimental: This time resolved-FRET binding assay was performed in white 384-well low volume plates (Greiner, cat #784075), at room temperature in kinase buffer A (KBA; Invitrogen cat #PV3189), consisting of 50 mM HEPES-NaOH (pH 7.5), 0.01% Brij-35, 10 mM MgCl2, and 1 mM EGTA. 5 μL of compound (diluted in reaction buffer, to 1% DMSO) were added to various wells in the plate, followed by 5 μL each of recombinant human Wee1A kinase (full length Wee1 kinase was expressed by baculovirus in insect cells using a N-terminal GST tag (MW: 99.1 kDa) (Invitrogen cat #PV3817) and LanthaScreen Eu-anti-GST antibody (Invitrogen, cat #PV5594). After this, 5 μL of kinase tracer 178 (Invitrogen, cat #PV5593) was added to the plate and the plate was incubated for 60 minutes at room temperature. The final assay conditions in each well were: 30 nM tracer 178, 5 nM Wee1A kinase and 2 nM Eu-labeled antibody in total assay volume of 15 μL. An Envision 2104 (Perkin-Elmer) Plate Reader with the following time-resolve fluorescence setting was used for performing LanthaScreen kinase binding assay. • Excitation 320 nm (30 nm bandpass) • Kinase Tracer Emission 665 nm (10 nm bandpass) • LanthaScreen Eu-anti-Tag Antibody Emission 615 nm (10 nm bandpass) • Dichroic Mirror Instrument dependent • Delay Time 100 μs • Integration Time 200 μs
(§1) To calculate the emission ratio, the acceptor/tracer emission ([…]) was divided by the antibody/donor emission ([…]) and the average of duplicate measurement was used for calculations. Data plotting, analysis of binding, and curve fitting was done using Excel add-in XLfit version 5.5.0.5 (IDBS, Guildford, United Kingdom). […] “NT” means not tested.

[2] = biological target: T2, Myt1 kinase (recombinant PMYT-1) (Homo sapiens, UniProt Q99640); assay: Myt1 kinase binding assay (LanthaScreen Eu Kinase Binding Assay); conditions: 3 nM tracer 178, 2.5 nM PMYT-1, 1 nM Eu-labeled antibody; read-out: Myt1 kinase Binding IC50
T2 construct: full length PMYT-1 was expressed by baculovirus in insect cells; purchased Invitrogen A30984; host or cells: insect cells (baculovirus)
T2 sequence (Q99640 1-499): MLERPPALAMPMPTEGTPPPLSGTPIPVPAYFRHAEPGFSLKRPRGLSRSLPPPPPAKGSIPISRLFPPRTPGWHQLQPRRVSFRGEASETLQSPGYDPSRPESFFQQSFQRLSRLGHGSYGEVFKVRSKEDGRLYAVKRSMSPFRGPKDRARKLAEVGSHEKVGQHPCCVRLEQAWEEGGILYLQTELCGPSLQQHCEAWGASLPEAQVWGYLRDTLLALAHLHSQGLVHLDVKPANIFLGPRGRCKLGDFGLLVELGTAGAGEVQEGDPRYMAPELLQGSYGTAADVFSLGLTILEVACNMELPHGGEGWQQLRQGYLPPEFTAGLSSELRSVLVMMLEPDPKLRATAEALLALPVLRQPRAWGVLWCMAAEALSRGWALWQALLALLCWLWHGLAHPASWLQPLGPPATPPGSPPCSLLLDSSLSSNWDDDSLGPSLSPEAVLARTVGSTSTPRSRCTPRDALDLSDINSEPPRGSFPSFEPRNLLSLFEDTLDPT
Experimental: as §1
We used a LanthaScreen Europium (Eu) Kinase Binding Assay to determine the binding affinities (IC50) of compounds to Myt1 kinase. […] “NT” designates that the compound was not tested in this assay.

[3] = biological target: T3, Wee1A kinase (CDK1 Tyr15 phosphorylation in ACHN renal cell carcinoma cells) (Homo sapiens, UniProt P30291); assay: High-content imaging of pCdk1 Y15, Wee1A kinase target engagement in ACHN cells; assay type: cell-based
T3 construct: pCDK1 Tyr15 immunofluorescence read-out
Experimental: Each of an ACHN renal cell carcinoma cell line (ATCC) and a DAOY medulloblastoma cell line, and an A427 lung cancer line were cultured in Minimum Essential Medium Eagle supplemented with 10% fetal calf serum (Sigma), 1% Penicillin-Streptomycin and 10 mM HEPES buffer (HyClone). Cell cultures were kept in a humidified incubator at 37 °C and 5% CO2. Cells were routinely tested for Mycoplasma contamination.
For target engagement assessment of Wee1A kinase inhibition, high-content imaging of ACHN renal cell carcinoma cells was used for quantification of CDK1 phosphorylated on tyrosine 15 by immunofluorescence (“IF”). 20,000 cells per well were seeded in tissue culture treated 96 well plates and treated with compounds at concentrations ranging from 7 to 5,000 nM or from 0.3 to 200 nM for 4h. Cells were fixated for 15 minutes in 4% paraformaldehyde solution, washed in PBS and permeabilized using 0.2% Triton X-100. Blocking was performed for 1 h at RT using Blocker FL Fluorescent Blocking Buffer (Thermo Scientific), thereafter cells were incubated with primary antibody (rabbit anti-pCDK1 Y^15, #4539, Cell Signaling Technology) at 4 °C ON. Alexa Fluor Plus 647 labelled goat anti-rabbit (A32733, Thermo Scientific) was used as secondary antibody. After washing in PBS, nuclei were stained with DAPI solution for 10 min at RT, protected from light. Cells were imaged using an ImageXpress Pico automated imaging system and CellReporter Xpress software (Molecular Devices). The percentage of cells with nuclear positivity for pCdk1 Y^15 compared to DMSO control was determined for each well and drug dose response curves and EC50 values were calculated and visualized using GraphPad Prism. Target engagement for Wee1A kinase can also be measured using the same AlphaLISA assay in OVCAR3 cells, an ovarian cancer cell line. NIH:OVCAR-3 (OVCAR3) cells are cultured in RPMI-1640 medium supplemented with 0.01 mg/ml insulin, 20% FBS, 1% Penicillin-Streptomycin and 10 mM HEPES buffer. 14,000 cells per well are seeded into 96 well tissue culture plates in full medium. Twenty-four hours post seeding, cells are treated with compound for 4 hours at concentrations ranging from 0.017 nM to 1000 nM.

[4] = 30 nM tracer 178, 5 nM Wee1A kinase, 2 nM Eu-labeled antibody, 60 minutes at room temperature, read-out: Wee1A kinase Binding IC50
[5] = 4 h treatment, nuclear positivity for pCdk1 Y15 vs DMSO control, read-out: CDK1 Tyr15 Phosphorylation EC50
[6] = read-out: CDK1 Tyr15 Phosphorylation EC50, 4 h treatment, nuclear positivity for pCdk1 Y15 vs DMSO control

T3 sequence (P30291 whole entry): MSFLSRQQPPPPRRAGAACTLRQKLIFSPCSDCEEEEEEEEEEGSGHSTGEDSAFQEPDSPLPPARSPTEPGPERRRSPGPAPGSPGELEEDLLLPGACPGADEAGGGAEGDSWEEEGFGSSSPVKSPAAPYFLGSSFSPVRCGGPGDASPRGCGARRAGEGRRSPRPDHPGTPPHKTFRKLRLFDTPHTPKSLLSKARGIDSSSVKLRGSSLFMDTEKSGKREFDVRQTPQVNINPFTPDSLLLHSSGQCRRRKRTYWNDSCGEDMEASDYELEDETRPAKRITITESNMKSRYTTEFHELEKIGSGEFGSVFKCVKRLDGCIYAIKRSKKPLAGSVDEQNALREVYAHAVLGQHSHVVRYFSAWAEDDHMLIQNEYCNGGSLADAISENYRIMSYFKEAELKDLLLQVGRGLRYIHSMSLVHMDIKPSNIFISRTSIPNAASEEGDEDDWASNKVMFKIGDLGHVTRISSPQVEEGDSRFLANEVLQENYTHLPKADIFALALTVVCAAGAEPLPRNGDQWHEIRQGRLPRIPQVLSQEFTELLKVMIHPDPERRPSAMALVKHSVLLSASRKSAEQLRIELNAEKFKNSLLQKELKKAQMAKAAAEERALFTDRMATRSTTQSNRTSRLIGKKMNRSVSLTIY
T1 sequence (P30291 whole entry): as above

SMILES	IC50 [1, 4]	IC50 [2]	EC50 [3, 5]	IC50 [1]	EC50 [3, 6]
C=CCn1c(=O)c2cnc(Nc3ccc(Cl)cc3)nc2n1-c1cccc(O[C@H]2CCCN(C)C2)n1 [Compound 162, 6-[(4-chlorophenyl)amino]-1-(6-{[(3S)-1-methylpiperidin-3-yl]oxy}pyridin-2-yl)-2-(prop-2-en-1-yl)-1H,2H,3H-pyrazolo[3,4-d]pyrimidin-3-one]	10 to 100 nM	100 to 500 nM	–	–	–
C=CCn1c(=O)c2cnc(Nc3ccc(Cl)cc3)nc2n1-c1cccc(N(C)[C@@H]2CCCN(C)C2)n1 [Compound 163, (R)-2-allyl-6-((4-chlorophenyl)amino)-1-(6-(methyl(1-methylpiperidin-3-yl)amino)pyridin-2-yl)-1,2-dihydro-3H-pyrazolo[3,4-d]pyrimidin-3-one]	10 to 100 nM	> 500 nM	–	–	–
C=CCn1c(=O)c2cnc(Nc3ccc(Cl)cc3)nc2n1-c1cccc(N(C)[C@H]2CCCN(C)C2)n1 [Compound 164, 1-(6-{[(S)-1-methyl-3-piperidyl]-N-methylamino}-2-pyridyl)-2-allyl-6-(p-chlorophenylamino)-1,2-dihydro-3H-1,2,5,7-tetraazainden-3-one]	10 to 100 nM	> 500 nM	–	–	–
C=CCn1c(=O)c2cnc(Nc3ccc(Cl)cc3)nc2n1-c1cccc(N[C@H]2CCCN(C)C2)n1 [Compound 167, 1-{6-[(S)-1-methyl-3-piperidylamino]-2-pyridyl}-2-allyl-6-(p-chlorophenylamino)-1,2-dihydro-3H-1,2,5,7-tetraazainden-3-one]	10 to 100 nM	100 to 500 nM	–	–	–
C=CCn1c(=O)c2cnc(Nc3ccc(Cl)cc3)nc2n1-c1cccc(N(C)[C@H]2CCCNC2)n1 [Compound 173, 1-{6-[N—(S)-3-piperidyl-N-methylamino]-2-pyridyl}-2-allyl-6-(p-chlorophenylamino)-1,2-dihydro-3H-1,2,5,7-tetraazainden-3-one]	10 to 100 nM	> 500 nM	–	–	–
C=CCn1c(=O)c2cnc(Nc3ccnc(C)c3)nc2n1-c1cccc(OC2CCN(C)CC2)c1 [Compound 219, 2-allyl-1-[m-(1-methyl-4-piperidyloxy)phenyl]-6-(2-methyl-4-pyridylamino)-1,2-dihydro-3H-1,2,5,7-tetraazainden-3-one]	< 10 nM	–	100 to 500 nM	–	–
C=CCn1c(=O)c2cnc(Nc3cnn(C)c3)nc2n1-c1cccc(OC2CCN(C)CC2)c1 [Compound 221, 2-allyl-1-[m-(1-methyl-4-piperidyloxy)phenyl]-6-(1-methyl-4-pyrazolylamino)-1,2-dihydro-3H-1,2,5,7-tetraazainden-3-one]	< 10 nM	–	500 to 1000 nM	–	–
C=CCn1c(=O)c2cnc(Nc3ccnc(C)c3)nc2n1-c1cccc(OC2CCNCC2)c1 [Compound 222, 2-allyl-6-(2-methyl-4-pyridylamino)-1-[m-(4-piperidyloxy)phenyl]-1,2-dihydro-3H-1,2,5,7-tetraazainden-3-one]	< 10 nM	–	> 1000 nM	–	–
C=CCn1c(=O)c2cnc(Nc3cnn(C)c3)nc2n1-c1cccc(OC2CCNCC2)c1 [Compound 224, 2-allyl-6-(1-methyl-4-pyrazolylamino)-1-[m-(4-piperidyloxy)phenyl]-1,2-dihydro-3H-1,2,5,7-tetraazainden-3-one]	< 10 nM	–	> 1000 nM	–	–
C=CCn1c(=O)c2cnc(Nc3ccc4c(cnn4C)c3)nc2n1-c1cccc(N(C)C2CCN(C)CC2)c1 [Compound 225, 1-{m-[N-methyl (1-methyl-4-piperidyl)amino]phenyl}-2-allyl-6-(1-methyl-1H-indazol-5-ylamino)-1,2-dihydro-3H-1,2,5,7-tetraazainden-3-one]	–	–	–	< 10 nM	> 1000 nM
CCn1c(=O)c2cnc(Nc3ccc4c(cnn4C)c3)nc2n1-c1cccc(N(C)C2CCNCC2)n1 [Compound 286, 1-[6-(N-methyl-N-4-piperidylamino)-2-pyridyl]-2-ethyl-6-(1-methyl-1H-indazol-5-ylamino)-1,2-dihydro-3H-1,2,5,7-tetraazainden-3-one]	–	–	–	< 10 nM	> 1000 nM
C=CCn1c(=O)c2cnc(Nc3cnn(C)c3)nc2n1-c1cccc(O[C@H]2C[C@@H]3CC[C@H]2CN3C)n1 [Compound 294, 6-[(1-methyl-1H-pyrazol-4-yl)amino]-1-(6-{[(1S,4S,5S)-2-methyl-2-azabicyclo[2.2.2]octan-5-yl]oxy}pyridin-2-yl)-2-(prop-2-en-1-yl)-1H,2H,3H-pyrazolo[3,4-d]pyrimidin-3-one]	10 to 100 nM	–	–	–	–
C=CCn1c(=O)c2cnc(Nc3cnn(C)c3)nc2n1-c1cccc(O[C@@H]2C[C@@H]3CC[C@H]2CN3C)n1 [Compound 295, 6-[(1-methyl-1H-pyrazol-4-yl)amino]-1-(6-{[(1S,4S,5R)-2-methyl-2-azabicyclo[2.2.2]octan-5-yl]oxy}pyridin-2-yl)-2-(prop-2-en-1-yl)-1H,2H,3H-pyrazolo[3,4-d]pyrimidin-3-one]	10 to 100 nM	–	–	–	–
C=CCn1c(=O)c2cnc(Nc3ccc4c(cnn4C)c3)nc2n1-c1cccc(OC2CCN(C3COC3)CC2)n1 [Compound 349, 2-allyl-6-((1-methyl-1H-indazol-5-yl)amino)-1-(6-((1-(oxetan-3-yl)piperidin-4-yl)oxy)pyridin-2-yl)-1,2-dihydro-3H-pyrazolo[3,4-d]pyrimidin-3-one]	< 10 nM	–	< 100 nM	–	–
C=CCn1c(=O)c2cnc(Nc3ccc4cnn(C)c4c3)nc2n1-c1cccc(OC2CCNCC2)n1 [Compound 359, 2-allyl-6-((1-methyl-1H-indazol-6-yl)amino)-1-(6-(piperidin-4-yloxy)pyridin-2-yl)-1,2-dihydro-3H-pyrazolo[3,4-d]pyrimidin-3-one]	< 10 nM	–	< 100 nM	–	–
C=CCn1c(=O)c2cnc(Nc3ccc4c(cnn4C)c3)nc2n1-c1cccc(OC2CCN(C)C(C)C2)n1 [Compound 402, rel-2-allyl-1-(6-(((2R,4R)-1,2-dimethylpiperidin-4-yl)oxy)pyridin-2-yl)-6-((1-methyl-1H-indazol-5-yl)amino)-1,2-dihydro-3H-pyrazolo[3,4-d]pyrimidin-3-one]	–	–	< 100 nM	–	–
